How the values were obtained:
GABAA receptors = experiment: block of sIPSCs in pyramidal neurons of the lateral amygdala; type: cell-based, mouse; settings: picrotoxin 50 uM; n=10; holding potential -70 mV
Protocol: Amygdala slices (250-300 um) were prepared from 3-5 week old control and GRPR knockout mice (littermates) with a vibratome. Slices were continuously superfused in solution containing (in mM): 119 NaCl, 2.5 KCl, 2.5 CaCl2,1.0 MgSO4, 1.25 NaH2PO4, 26.0 NaHCO3, 10 glucose, and equilibrated with 95% O2 and 5% CO2 [pH 7.3-7.4] at room temperature. Whole-cell recordings of evoked compound EPSCs or spontaneous GABA-mediated IPSCs were obtained from pyramidal cells in the lateral amygdala under visual guidance (DIG/ infrared optics) with an EPC-9 amplifier and Pulse v8.09 software (HEKA Elektronik). […] Series resistance was monitored throughout experiment and was in a range of […]. […] The EPSC amplitudes were measured as the difference between the mean current during a prestimulus baseline and the mean current over a 2 ms-window at the peak of the response. […]
The spontaneous IPSCs were recorded on videotape for off line analysis in the presence of 20 uM CNQX. Data were analyzed with the Mini Analysis Program v5.2.4 (Synaptosoft Inc., Decatur, Ga.; Bolshakov et al., 2000).
We recorded spontaneous inhibitory postsynaptic currents (sIPSCs) in the pyramidal neurons having blocked the AM PA (a-amino-3-hydroxy-5-methyl-4-isoxazolepropionic acid) receptor-mediated responses (FIG. 2) with CNQX (6-cyano-7-nitroquinoxaline-2,3-dione, 20 uM).

[1] = tested on: pyramidal neurons in slices from GRPR knockout mice; type: cell-based, mouse
GRPR = GRPR (Mus musculus, UniProt P21729); type: cell-based
Chain of GRPR (P21729 whole entry): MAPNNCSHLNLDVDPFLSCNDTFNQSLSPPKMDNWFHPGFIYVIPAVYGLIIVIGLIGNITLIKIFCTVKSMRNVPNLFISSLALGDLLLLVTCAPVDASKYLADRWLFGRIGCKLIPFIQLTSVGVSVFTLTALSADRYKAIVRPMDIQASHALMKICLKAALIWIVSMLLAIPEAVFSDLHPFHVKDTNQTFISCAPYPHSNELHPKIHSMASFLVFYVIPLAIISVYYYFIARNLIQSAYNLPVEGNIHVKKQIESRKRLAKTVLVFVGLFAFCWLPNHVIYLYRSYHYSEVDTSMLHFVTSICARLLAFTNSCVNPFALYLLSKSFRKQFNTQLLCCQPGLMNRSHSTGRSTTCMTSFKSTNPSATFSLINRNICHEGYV

Compound: picrotoxin
- block of sIPSCs (GABAA receptors): completely blocked

Compound: gastrin-releasing peptide [GRP]
- effect of GRP on frequency of sIPSCs (in words) [1]: failed to increase
- frequency of sIPSCs [1]: 5.64±0.67 Hz

Compound: NC1=N[C@H](O)[C@H]2[C@H]3O[C@]4(O)O[C@@H]([C@@H](O)[C@@]2(N1)[C@@H]4O)[C@]3(O)CO [TTX, tetrodotoxin]
- effect of GRP on frequency of sIPSCs in the presence of TTX (GRPR): blocking the effects of the agonist

Reference: patent US20080051315A1 (priority 2003, published 2008)
